Laboratory results as given in PubChem BioAssay AID1845206 (Molecular Pharmacology Branch, DTP, NCI, 2023).
“And” between values parts separate entries of the source, which are not always exact repeats. Equal entries are not always repeated. The source made the active and inactive calls. How the source made its calls: active means viability on the fitted dose curve at most 10% of control; inactive means the rest.

Tested on: NCI-H1618 multicellular tumor spheroid viability
Assay: Anticancer human tumor NCI-H1618 cell line growth inhibition;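 further: spheroids exposed to agents for 7 days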
Conditions: for viability, T/C: stronger effect = lower value
Description: Multicellular complex tumor spheroid response to DNA repair inhibitors in combination with DNA-damaging drugs
This study explores the anticancer activities of DNA-damaging drugs and inhibitors of DNA damage repair, both as single agents and in combinations. Complex tumor spheroids comprised of malignant cells, endothelial cells and mesenchymal stem cells served as an in vitro model for human solid tumors. This model system incorporates physiologically relevant features and patient-derived or established malignant cell lines with clinically relevant genetic alterations from many tumor types. Twenty-six patient-derived or established malignant cell lines were evaluated representing sarcoma, melanoma, small cell lung cancer (SCLC), non-small cell lung cancer (NSCLC), as well as bladder, ovarian and pancreatic cancers. The concentration ranges selected for each drug and investigational agent were based upon clinically achievable concentrations if the clinical Cmax of the agent was known.
Compounds. The drugs and compounds olaparib (NSC753686), talazoparib (NSC767125), berzosertib (NSC777718), elimusertib (NSC800525), nedisertib (NSC802822), VX-984 (NSC792969), AZD-1390 (NSC803789), temozolomide (NSC362856), topotecan (NSC609699), trabectedin (NSC813783), staurosporine (NSC755774), and gemcitabine (NSC613327) were obtained from the National Cancer Institute (NCI) Developmental Therapeutics Program Chemical Repository. The FDA-approved anticancer drug set is available from the Developmental Therapeutics Program at https://dtp.cancer.gov/organization/dscb/obtaining/available_plates.htm. […] The stock solutions were prepared in dimethyl sulfoxide (DMSO, Sigma-Aldrich, St. Louis, MO, cat. D2650) at 400-fold the tested concentration and stored at -70 degrees C. Prior to their use, the stock solutions were diluted in fresh medium and the final DMSO concentration in the assay was 0.25% (v/v). All drugs and investigational agents were tested over a range starting from a high concentration at or near the clinical Cmax and decreasing in half-log increments. If the clinical Cmax for an agent had not been determined, the highest concentration tested was 10 microM.
Cell Lines. The patient-derived cancer cell (PDC) lines: 156681-154-R-J1-PDC, 283228-195-R-J1-PDC, 287954-098-R-J1-PDC, 292921-168-R-J2-PDC, 349418-098-R-PDC, 425362-245-T-J1-PDC, 556581-035-R-J1-PDC, and BL0293-F563-PDC were received from the NCI Patient-Derived Models Repository (PDMR, https://pdmr.cancer.gov). The established cell lines HS-SY-2 (RRID:CVCL_8719), MPNST, and SYO-1 (RRID:CVCL_7146) were obtained from the Sloan Kettering Institute. The alveolar soft parts sarcoma cell line ASPS-1 (RRID:CVCL_S738) was established at the NCI and grown from internal seed stocks. The following established cell lines were purchased from the American Type Culture Collection (ATCC, Manassas, VA): G-401 (ATCC, cat. CRL-1441, RRID:CVCL_0270), SW982 (ATCC, cat. HTB-93, RRID:CVCL_1734), VA-ES-BJ (ATCC, cat. CRL-2138, RRID:CVCL_1785), NCI-H719 (ATCC, cat. CRL-5837, RRID:CVCL_1582), NCI-H196 (ATCC, cat. CRL-5823, RRID:CVCL_1509), NCI-H841 (ATCC, cat. CRL-5845, RRID:CVCL_1595), NCI-H1618 (ATCC, cat. CRL-5879, RRID:CVCL_1480), NCI-H1876 (ATCC, cat. CRL-5902, RRID:CVCL_1503), DMS 114 (ATCC, cat. CRL-2066; RRID:CVCL_1174), NCI-H211 (ATCC, cat. CRL-5824; RRID:CVCL_1529), and SW 1271 (ATCC, cat. CRL-2177, RRID:CVCL_1716). The small cell lung cancer cell line COR-L88 was purchased from Sigma-Aldrich (cat. 92031917-1VL, RRID:CVCL_1141). The non-small cell lung cancer cell lines NCI-H226 (RRID:CVCL_1544) and NCI-H322M (RRID:CVCL_1557) were established at the NCI and grown from internal seed stocks. Pooled donor human umbilical vein endothelial cells (HUVEC, Lonza, cat. CC-2519) and human mesenchymal stem cells (hMSC, Lonza, cat. PT-2501) were purchased from Lonza (Walkersville, MD).
Cell Culture. All cells were maintained in an incubator at 37 degrees C and 5% CO2 with 95% humidity. […]

Structure (SMILES): COc1cc(C)[nH]c(=O)c1CN1CCc2c(Cl)cc(C(OC)C3COC3)c(Cl)c2C1=O (configuration not stated) + Cn1nnc2c(C(N)=O)ncn2c1=O
- IC50 (curve of first compound, second compound 1 µM): > 10000 nM
- IC50 (curve of first compound, second compound 3.16 µM): < 31.6 nM
- IC50 (curve of first compound, second compound 10 µM): < 31.6 nM
- IC50 (curve of first compound, second compound 31.6 µM): < 31.6 nM
- IC50 (curve of first compound, second compound 100 µM): < 31.6 nM
- outcome (second compound 1 µM, first compound 0.0316 µM): inactive
- viability, T/C (second compound 1 µM, first compound 0.1 µM): 77.7%
- outcome (second compound 1 µM, first compound 0.316 µM): inactive
- outcome (second compound 1 µM, first compound 1 µM): inactive
- viability, T/C (second compound 1 µM, first compound 3.16 µM): 69.6%
- viability, T/C (second compound 1 µM, first compound 10 µM): 72.8%
- viability, T/C (second compound 3.16 µM, first compound 0.0316 µM): 14.2%
- viability, T/C (second compound 3.16 µM, first compound 0.1 µM): 16.2%
- viability, T/C (second compound 3.16 µM, first compound 0.316 µM): 20.3%
- viability, T/C (second compound 3.16 µM, first compound 1 µM): 10.3%
- viability, T/C (second compound 3.16 µM, first compound 3.16 µM): 15.8%
- viability, T/C (second compound 3.16 µM, first compound 10 µM): 15.4%
- viability, T/C (second compound 10 µM, first compound 0.0316 µM): 3.15%
- viability, T/C (second compound 10 µM, first compound 0.1 µM): 6.34%
- viability, T/C (second compound 10 µM, first compound 0.316 µM): 4.96%
- viability, T/C (second compound 10 µM, first compound 1 µM): 18.4%
- viability, T/C (second compound 10 µM, first compound 3.16 µM): 3.33%
- viability, T/C (second compound 10 µM, first compound 10 µM): 4.36%
- viability, T/C (second compound 31.6 µM, first compound 0.0316 µM): 6.62%
- viability, T/C (second compound 31.6 µM, first compound 0.1 µM): 13.3%
- viability, T/C (second compound 31.6 µM, first compound 0.316 µM): 3.61%
- viability, T/C (second compound 31.6 µM, first compound 1 µM): 5.57%
- viability, T/C (second compound 31.6 µM, first compound 3.16 µM): 10.4%
- viability, T/C (second compound 31.6 µM, first compound 10 µM): 13%
- viability, T/C (second compound 100 µM, first compound 0.0316 µM): 45.3%
- viability, T/C (second compound 100 µM, first compound 0.1 µM): 41.6%
- viability, T/C (second compound 100 µM, first compound 0.316 µM): 29.8%
- viability, T/C (second compound 100 µM, first compound 1 µM): 39.6%
- viability, T/C (second compound 100 µM, first compound 3.16 µM): 18.3%
- viability, T/C (second compound 100 µM, first compound 10 µM): 45.1%

Structure (SMILES): Cc1cc(C)c(CNC(=O)c2cc(-c3ccc(CN4CCOCC4)cc3)cc3c2cnn3C2CCCC2)c(=O)[nH]1
- viability, T/C (compound 0.0316 µM): 90.5% and 97.2% and 101%
- viability, T/C (compound 0.1 µM): 103% and 101% and 107%
- viability, T/C (compound 0.316 µM): 89.7% and 98.2% and 101%
- viability, T/C (compound 1 µM): 94.6% and 94.8% and 99%
- viability, T/C (compound 3.16 µM): 89% and 95.3% and 95.9%
- viability, T/C (compound 10 µM): 76.2% and 95.1% and 88.9%
- IC50 (curve of compound): > 10000 nM

Structure (SMILES): CC(C)n1c(=O)n(C)c2cnc3cc(F)c(-c4ccc(OCCCN5CCCCC5)nc4)cc3c21 + CC[C@@]1(O)C(=O)OCc2c1cc1n(c2=O)Cc2cc3c(CN(C)C)c(O)ccc3nc2-1
- IC50 (curve of first compound, second compound 0.003 µM): > 10000 nM
- IC50 (curve of first compound, second compound 0.00949 µM): < 31.6 nM
- IC50 (curve of first compound, second compound 0.03 µM): < 31.6 nM
- IC50 (curve of first compound, second compound 0.0949 µM): < 31.6 nM
- IC50 (curve of first compound, second compound 0.3 µM): < 31.6 nM
- viability, T/C (second compound 0.003 µM, first compound 0.0316 µM): 56.8%
- viability, T/C (second compound 0.003 µM, first compound 0.1 µM): 51.4%
- viability, T/C (second compound 0.003 µM, first compound 0.316 µM): 51.9%
- viability, T/C (second compound 0.003 µM, first compound 1 µM): 66.7%
- viability, T/C (second compound 0.003 µM, first compound 3.16 µM): 72.7%
- viability, T/C (second compound 0.003 µM, first compound 10 µM): 38.1%
- viability, T/C (second compound 0.00949 µM, first compound 0.0316 µM): 7.93%
- viability, T/C (second compound 0.00949 µM, first compound 0.1 µM): 4.31%
- viability, T/C (second compound 0.00949 µM, first compound 0.316 µM): 8.14%
- viability, T/C (second compound 0.00949 µM, first compound 1 µM): 10.5%
- viability, T/C (second compound 0.00949 µM, first compound 3.16 µM): 12.8%
- viability, T/C (second compound 0.00949 µM, first compound 10 µM): 14.4%
- viability, T/C (second compound 0.03 µM, first compound 0.0316 µM): 4.99%
- viability, T/C (second compound 0.03 µM, first compound 0.1 µM): 4.95%
- viability, T/C (second compound 0.03 µM, first compound 0.316 µM): 4.02%
- viability, T/C (second compound 0.03 µM, first compound 1 µM): 2.3%
- viability, T/C (second compound 0.03 µM, first compound 3.16 µM): 2.79%
- viability, T/C (second compound 0.03 µM, first compound 10 µM): 1.82%
- viability, T/C (second compound 0.0949 µM, first compound 0.0316 µM): 4.98%
- viability, T/C (second compound 0.0949 µM, first compound 0.1 µM): 3.54%
- viability, T/C (second compound 0.0949 µM, first compound 0.316 µM): 8.33%
- viability, T/C (second compound 0.0949 µM, first compound 1 µM): 4.32%
- viability, T/C (second compound 0.0949 µM, first compound 3.16 µM): 7.17%
- viability, T/C (second compound 0.0949 µM, first compound 10 µM): 4.95%
- viability, T/C (second compound 0.3 µM, first compound 0.0316 µM): 4.62%
- viability, T/C (second compound 0.3 µM, first compound 0.1 µM): 4.88%
- viability, T/C (second compound 0.3 µM, first compound 0.316 µM): 4.27%
- viability, T/C (second compound 0.3 µM, first compound 1 µM): 4.09%
- viability, T/C (second compound 0.3 µM, first compound 3.16 µM): 5.96%
- viability, T/C (second compound 0.3 µM, first compound 10 µM): 6.01%
